Results: patent US20230000949A1, “SOLID COMPOSITIONS COMPRISING A PCSK9 INHIBITOR AND A SALT OF N-(8-(2-HYDROXYBENZOYL)AMINO)CAPRYLIC ACID” (Novo Nordisk A/S, priority 2019, published 2023)

Details: pH 6

Effect on SNAC solubility: concentration dependent effect
SMILES: NC(=O)c1cccnc1 [Nicotinamide]
